Converted amounts (≈) assume the structure as drawn. Where two headings read alike, the source gives them in different places.
Tests used:
Klebsiella pneumoniae = assay: MIC, micro-dilution broth method (CLSI); assay type: cell-based; conditions: Klebsiella pneumoniae, read-out: MIC
Morganella morganii = assay: MIC, gut commensal bacteria, micro-dilution broth
Bacillus cereus = assay: MIC, micro-dilution broth method (CLSI); assay type: cell-based; conditions: ATCC11778; Bacillus cereus ATCC 11778
Source text: (§1) Antimicrobial susceptibility assays.

Bacillus subtilis = assay: MIC, micro-dilution broth method (CLSI); assay type: cell-based; conditions: Bacillus subtilis PY79
Source text: as §1

Staphylococcus aureus = assay: MIC, micro-dilution broth method (CLSI); assay type: cell-based; conditions: ATCC29213; Staphylococcus aureus ATCC 29213
Source text: as §1

Enterococcus faecium = assay: MIC, micro-dilution broth method (CLSI); assay type: cell-based; conditions: ATCC19434; Enterococcus faecium ATCC 19434
Source text: as §1

Listeria monocytogenes = assay: MIC, micro-dilution broth method (CLSI); assay type: cell-based; conditions: ATCC19115; Listeria monocytogenes ATCC 19115
Source text: as §1

[1] = system: Staphylococcus epidermidis; assay: MIC, micro-dilution broth method (CLSI); assay type: cell-based; conditions: Staphylococcus epidermidis NRS101
Source text: as §1

Acinetobacter baumannii = assay: MIC, micro-dilution broth method (CLSI); assay type: cell-based
Source text: as §1

Pseudomonas aeruginosa = assay: MIC, micro-dilution broth method (CLSI); assay type: cell-based
Source text: as §1

Streptococcus pyogenes = assay: MIC, micro-dilution broth method (CLSI); assay type: cell-based; conditions: Streptococcus pyogenes Strain 1055
Source text: as §1

Streptococcus pneumoniae = assay: MIC, micro-dilution broth method (CLSI); assay type: cell-based; conditions: Streptococcus pneumoniae Strain 1003
Source text: as §1

Salmonella typhimurium = assay: MIC, micro-dilution broth method (CLSI); assay type: cell-based; conditions: Salmonella enterica, ATCC 14028 / TYPHIMURIUM; Salmonella typhimurium ATCC14028
Proteus mirabilis = assay: MIC, gut commensal bacteria, micro-dilution broth

Cc1cc(-c2c[nH]nc2-c2cccc(OCc3cccc(C#N)c3)c2)cc(C)n1 [Compound 12, 3-((3-(4-(2,6-dimethylpyridin-4-yl)-1H-pyrazol-3-yl)phenoxy)methyl)benzonitrile] gave an MIC (Klebsiella pneumoniae; ATCC27736, K. pneumoniae ATCC 27736) of 1 µg/mL (≈ 2.63 µM), an MIC (Klebsiella pneumoniae; ATCCBAA1705, K. pneumoniae ATCC BAA-1705) of 4 µg/mL (≈ 10.5 µM) and an MIC (Klebsiella pneumoniae; ATCCBAA2146, K. pneumoniae ATCC BAA-2146) of 8 µg/mL (≈ 21 µM). For the same molecule, the MIC (Klebsiella pneumoniae; ATCCBAA2342, K. pneumoniae ATCC BAA-2342) was 4 µg/mL (≈ 10.5 µM), the MIC (Klebsiella pneumoniae; ATCCBAA2470, K. pneumoniae ATCC BAA-2470) was 1 µg/mL (≈ 2.63 µM) and the MIC (Klebsiella pneumoniae; ATCCBAA2472, K. pneumoniae ATCC BAA-2472) was 4 µg/mL (≈ 10.5 µM). For the same molecule, the MIC (Klebsiella pneumoniae; ATCCBAA2473, K. pneumoniae ATCC BAA-2473) was 4 µg/mL (≈ 10.5 µM), the MIC (Klebsiella pneumoniae; K. pneumoniae AR0034) was 0.5 µg/mL (≈ 1.31 µM) and the MIC (Klebsiella pneumoniae; K. pneumoniae AR0039) was 0.5 µg/mL (≈ 1.31 µM). The MIC (Klebsiella pneumoniae; K. pneumoniae AR0041) was 0.5 µg/mL (≈ 1.31 µM), the MIC (Klebsiella pneumoniae; K. pneumoniae AR0042) was 4 µg/mL (≈ 10.5 µM) and the MIC (Klebsiella pneumoniae; K. pneumoniae AR0043) was 0.5 µg/mL (≈ 1.31 µM). The MIC (Klebsiella pneumoniae; K. pneumoniae AR0044) was 0.5 µg/mL (≈ 1.31 µM), the MIC (Klebsiella pneumoniae; K. pneumoniae AR0046) was 2 µg/mL (≈ 5.26 µM) and the MIC (Klebsiella pneumoniae; K. pneumoniae AR0047) was 4 µg/mL (≈ 10.5 µM). The MIC (Klebsiella pneumoniae; K. pneumoniae AR0049) was 8 µg/mL (≈ 21 µM), the MIC (Klebsiella pneumoniae; K. pneumoniae AR0066) was 4 µg/mL (≈ 10.5 µM) and the MIC (Klebsiella pneumoniae; K. pneumoniae AR0068) was 4 µg/mL (≈ 10.5 µM). The MIC (Klebsiella pneumoniae; K. pneumoniae AR0075) was 1 µg/mL (≈ 2.63 µM), the MIC (Klebsiella pneumoniae; K. pneumoniae AR0076) was 0.5 µg/mL (≈ 1.31 µM) and the MIC (Klebsiella pneumoniae; K. pneumoniae AR0079) was 2 µg/mL (≈ 5.26 µM). For the same molecule, the MIC (Klebsiella pneumoniae; K. pneumoniae AR0080) was 0.5 µg/mL (≈ 1.31 µM), the MIC (Klebsiella pneumoniae; K. pneumoniae AR0087) was 2 µg/mL (≈ 5.26 µM) and the MIC (Klebsiella pneumoniae; K. pneumoniae AR0098) was 4 µg/mL (≈ 10.5 µM). For the same molecule, the MIC (Klebsiella pneumoniae; K. pneumoniae AR0106) was 2 µg/mL (≈ 5.26 µM), the MIC (Klebsiella pneumoniae; K. pneumoniae AR0107) was 0.25 µg/mL (≈ 0.657 µM) and the MIC (Klebsiella pneumoniae; K. pneumoniae AR0109) was 8 µg/mL (≈ 21 µM). It also gave an MIC (Klebsiella pneumoniae; K. pneumoniae AR0112) of 4 µg/mL (≈ 10.5 µM), an MIC (Klebsiella pneumoniae; K. pneumoniae AR0113) of 2 µg/mL (≈ 5.26 µM) and an MIC (Klebsiella pneumoniae; K. pneumoniae AR0115) of 8 µg/mL (≈ 21 µM). The MIC (Klebsiella pneumoniae; K. pneumoniae AR0117) was 4 µg/mL (≈ 10.5 µM), the MIC (Klebsiella pneumoniae; K. pneumoniae AR0120) was 2 µg/mL (≈ 5.26 µM) and the MIC (Klebsiella pneumoniae; K. pneumoniae AR0125) was 4 µg/mL (≈ 10.5 µM). For the same molecule, the MIC (Klebsiella pneumoniae; K. pneumoniae AR0126) was 0.5 µg/mL (≈ 1.31 µM), the MIC (Klebsiella pneumoniae; K. pneumoniae AR0129) was 4 µg/mL (≈ 10.5 µM) and the MIC (Klebsiella pneumoniae; K. pneumoniae AR0135) was 2 µg/mL (≈ 5.26 µM). For the same molecule, the MIC (Klebsiella pneumoniae; K. pneumoniae AR0138) was 1 µg/mL (≈ 2.63 µM), the MIC (Klebsiella pneumoniae; K. pneumoniae AR0139) was 2 µg/mL (≈ 5.26 µM) and the MIC (Klebsiella pneumoniae; K. pneumoniae AR0140) was 2 µg/mL (≈ 5.26 µM). For the same molecule, the MIC (Klebsiella pneumoniae; K. pneumoniae AR0141) was 0.5 µg/mL (≈ 1.31 µM), the MIC (Klebsiella pneumoniae; K. pneumoniae AR0142) was 0.5 µg/mL (≈ 1.31 µM) and the MIC (Klebsiella pneumoniae; K. pneumoniae AR0143) was 4 µg/mL (≈ 10.5 µM). The MIC (Klebsiella pneumoniae; K. pneumoniae AR0145) was 2 µg/mL (≈ 5.26 µM), the MIC (Klebsiella pneumoniae; K. pneumoniae AR0146) was 2 µg/mL (≈ 5.26 µM) and the MIC (Klebsiella pneumoniae; K. pneumoniae AR0148) was 4 µg/mL (≈ 10.5 µM). For the same molecule, the MIC (Klebsiella pneumoniae; K. pneumoniae AR0152) was 0.5 µg/mL (≈ 1.31 µM), the MIC (Klebsiella pneumoniae; K. pneumoniae AR0153) was 4 µg/mL (≈ 10.5 µM) and the MIC (Klebsiella pneumoniae; K. pneumoniae AR0158) was 8 µg/mL (≈ 21 µM). For the same molecule, the MIC (Klebsiella pneumoniae; K. pneumoniae AR0160) was 0.5 µg/mL (≈ 1.31 µM), the MIC (Klebsiella pneumoniae; K. pneumoniae AR0347) was 8 µg/mL (≈ 21 µM) and the MIC (Klebsiella pneumoniae; K. pneumoniae AR0542) was 2 µg/mL (≈ 5.26 µM). It also gave an MIC (Klebsiella pneumoniae; K. pneumoniae AR0548) of 2 µg/mL (≈ 5.26 µM), an MIC (Klebsiella pneumoniae; K. pneumoniae AR0550) of 2 µg/mL (≈ 5.26 µM) and an MIC (Klebsiella pneumoniae; K. pneumoniae AR0552) of 4 µg/mL (≈ 10.5 µM). It also gave an MIC (Klebsiella pneumoniae; K. pneumoniae AR0553) of 0.5 µg/mL (≈ 1.31 µM), an MIC (Klebsiella pneumoniae; K. pneumoniae AR0554) of 4 µg/mL (≈ 10.5 µM) and an MIC (Klebsiella pneumoniae; K. pneumoniae AR0555) of 2 µg/mL (≈ 5.26 µM). For the same molecule, the MIC (Klebsiella pneumoniae; K. pneumoniae AR-0040) was 1 µg/mL (≈ 2.63 µM), the MIC (Morganella morganii; ATCC25380) was over 128 µg/mL and the MIC (Morganella morganii; ATCC25839) was over 128 µg/mL. The MIC (Bacillus cereus) was over 128 µg/mL, the MIC (Bacillus subtilis) was over 128 µg/mL and the MIC (Staphylococcus aureus) was over 128 µg/mL. It also gave an MIC (Enterococcus faecium) of over 128 µg/mL, an MIC (Listeria monocytogenes) of over 128 µg/mL and an MIC [1] of over 128 µg/mL. For the same molecule, the MIC (Acinetobacter baumannii; ATCC19606, Acinetobacter baumannii ATCC 19606) was over 128 µg/mL, the MIC (Acinetobacter baumannii; ATCC19606, Acinetobacter baumannii ATCC 19606 Δ3) was 32 µg/mL (≈ 84.1 µM) and the MIC (Pseudomonas aeruginosa; Pseudomonas aeruginosa PAO1, read-out: MIC) was over 128 µg/mL. It also gave an MIC (Pseudomonas aeruginosa; Pseudomonas aeruginosa PAO1 Δ6) of over 128 µg/mL, an MIC (Streptococcus pyogenes) of over 128 µg/mL and an MIC (Streptococcus pneumoniae) of over 128 µg/mL. For the same molecule, the MIC (Salmonella typhimurium) was 1 µg/mL (≈ 2.63 µM), the MIC (Proteus mirabilis; Proteus mirabilis ATCC 35659, listed as Lolamycin) was over 128 µg/mL and the MIC (Proteus mirabilis; Proteus mirabilis, ATCC35659) was over 128 µg/mL.

Reference: US20250051300A1, “GRAM-NEGATIVE SPECIFIC ANTIBIOTICS SPARING EFFECT ON GUT MICROBIOME” (THE BOARD OF TRUSTEES OF THE UNIVERSITY OF ILLINOIS, priority 2021, published 2025)
